In patent US20170362283A1, “NISIN-BASED COMPOUNDS AND USE THEREOF IN THE TREATMENT OF BACTERIAL INFECTIONS” (UNIVERSITEIT UTRECHT HOLDING B.V., priority 2015, published 2017):
In brackets after ≈: the same amount, converted by molar mass.

Legend:
Conditions in all cases: duplicate experiments
B. subtilis = tested on: B. subtilis
Method: (§1) Determining the MIC value is a standard technique well known to the skilled person, in particular the MIC value can be measured using method M07-A9 (CLSI standard, January 2012, Vol. 32, No. 2, “Methods for Dilution Antimicrobial Susceptibility Tests for Bacteria That Grow Aerobically”).
(§2) Different microorganisms (from glycerol stock) were plated out on blood agar and incubated at 37° C. for 24 hours. A colony was selected and 2×5 mL of TSB was inoculated. The samples and a sterile control were cultured for 16-20 hours at 37° C. Comparative compound B is nisin acting as a control. […] Comparative compounds A, D and E are also control compounds not part of the present invention.
(§3) The overnight cultures were diluted to 0.5×10^6 CFU in TSB. 50 μL of the bacterial solution was added to each well and the plates were sealed with an adhesive membrane and incubated at 37° C. for 16 hours. The next day, the plates were visually inspected for bacterial growth.

E. coli = tested on: E. coli
Method: as §1, §2, §3

S. aureus = tested on: S. aureus
Method: as §1, §2, §3

VRE 155 = type: cell-based
Method: as §1
(§4) Different microorganisms (from glycerol stock) were plated out on blood agar and incubated at 37° C. for 24 hours. A colony was selected and 2×5 mL of TSB was inoculated. The samples and a sterile control were cultured for 16-20 hours at 37° C. Comparative compound B is nisin acting as a control. Comparative compound C is vancomycin, also acting as a control. Comparative compounds A, D and E are also control compounds not part of the present invention.
as §3

MRSA USA300 = type: cell-based, Staphylococcus aureus
Method: as §1, §4, §3

Row | SMILES | MIC values B. subtilis (B. subtilis) [µg/mL] | MIC values E. coli (E. coli) [µg/mL] | MIC values S. aureus (S. aureus) [µg/mL] | MIC values VRE 155 (VRE 155) [µg/mL] | MIC values MRSA USA300 (MRSA USA300) [µg/mL]
1 | C=C1NC(=O)[C@H]([C@@H](C)CC)NC(=O)[C@H](NC(=O)C(=CC)NC(=O)[C@@H](N)[C@@H](C)CC)CSC[C@@H](C(=O)N[C@H]2C(=O)N3CCC[C@H]3C(=O)NCC(=O)N[C@H](C(=O)N[C@@H](CCCCN)C(=O)NCCCCCCC)CS[C@H]2C)NC(=O)[C@H](CC(C)C)NC1=O [(3)] | 16 (≈ 12.8 µM) | >64 | 64 (≈ 51.3 µM) | 8 (≈ 6.41 µM) | 64 (≈ 51.3 µM)
2 | C=C1NC(=O)[C@H]([C@@H](C)CC)NC(=O)[C@H](NC(=O)C(=CC)NC(=O)[C@@H](N)[C@@H](C)CC)CSC[C@@H](C(=O)N[C@H]2C(=O)N3CCC[C@H]3C(=O)NCC(=O)N[C@H](C(=O)N[C@@H](CCCCN)C(=O)NCCCCCCCC)CS[C@H]2C)NC(=O)[C@H](CC(C)C)NC1=O [(4)] | – | – | – | 16 (≈ 12.7 µM) | 64 (≈ 50.7 µM)
3 | C=C1NC(=O)[C@H]([C@@H](C)CC)NC(=O)[C@H](NC(=O)C(=CC)NC(=O)[C@@H](N)[C@@H](C)CC)CSC[C@@H](C(=O)N[C@H]2C(=O)N3CCC[C@H]3C(=O)NCC(=O)N[C@H](C(=O)N[C@@H](CCCCN)C(=O)NCCCCCCCCC)CS[C@H]2C)NC(=O)[C@H](CC(C)C)NC1=O [(5)] | 8 (≈ 6.27 µM) | 64 (≈ 50.2 µM) | 16 (≈ 12.5 µM) | 8 to 16 | 32 (≈ 25.1 µM)
4 | C=C1NC(=O)[C@H]([C@@H](C)CC)NC(=O)[C@H](NC(=O)C(=CC)NC(=O)[C@@H](N)[C@@H](C)CC)CSC[C@@H](C(=O)N[C@H]2C(=O)N3CCC[C@H]3C(=O)NCC(=O)N[C@H](C(=O)N[C@@H](CCCCN)C(=O)NCCCCCCCCCCC)CS[C@H]2C)NC(=O)[C@H](CC(C)C)NC1=O [(7)] | 4 (≈ 3.07 µM) | >64 | 8 (≈ 6.14 µM) | 4 (≈ 3.07 µM) | 16 (≈ 12.3 µM)
5 | C=C1NC(=O)[C@H]([C@@H](C)CC)NC(=O)[C@H](NC(=O)C(=CC)NC(=O)[C@@H](N)[C@@H](C)CC)CSC[C@@H](C(=O)N[C@H]2C(=O)N3CCC[C@H]3C(=O)NCC(=O)N[C@H](C(=O)N[C@@H](CCCCN)C(=O)NCCCCCCCCCCCC)CS[C@H]2C)NC(=O)[C@H](CC(C)C)NC1=O [(8)] | 4 (≈ 3.04 µM) | >64 | 4 to 8 | 2 (≈ 1.52 µM) | 4 (≈ 3.04 µM)
6 | C=C1NC(=O)[C@H]([C@@H](C)CC)NC(=O)[C@H](NC(=O)C(=CC)NC(=O)[C@@H](N)[C@@H](C)CC)CSC[C@@H](C(=O)N[C@H]2C(=O)N3CCC[C@H]3C(=O)NCC(=O)N[C@H](C(=O)N[C@@H](CCCCN)C(=O)NCCCCCCCCCCCCC)CS[C@H]2C)NC(=O)[C@H](CC(C)C)NC1=O [(9)] | 4 (≈ 3 µM) | >64 | 8 (≈ 6.01 µM) | 2 (≈ 1.5 µM) | 4 (≈ 3 µM)
7 | C=C1NC(=O)[C@H]([C@@H](C)CC)NC(=O)[C@H](NC(=O)C(=CC)NC(=O)[C@@H](N)[C@@H](C)CC)CSC[C@@H](C(=O)N[C@H]2C(=O)N3CCC[C@H]3C(=O)NCC(=O)N[C@H](C(=O)N[C@@H](CCCCN)C(=O)NCCCCCCCCCCCCCCC)CS[C@H]2C)NC(=O)[C@H](CC(C)C)NC1=O [(11)] | 8 (≈ 5.88 µM) | >64 | 32 (≈ 23.5 µM) | 8 (≈ 5.88 µM) | 64 (≈ 47.1 µM)
8 | C=C1NC(=O)[C@H]([C@@H](C)CC)NC(=O)[C@H](NC(=O)C(=CC)NC(=O)[C@@H](N)[C@@H](C)CC)CSC[C@@H](C(=O)N[C@H]2C(=O)N3CCC[C@H]3C(=O)NCC(=O)N[C@H](C(=O)N[C@@H](CCCCN)C(=O)NCc3ccc(-c4ccc(Cl)cc4)cc3)CS[C@H]2C)NC(=O)[C@H](CC(C)C)NC1=O [(13)] | 2 to 4 | – | – | 4 (≈ 2.96 µM) | 8 (≈ 5.93 µM)
9 | C=C1NC(=O)[C@H]([C@@H](C)CC)NC(=O)[C@H](NC(=O)C(=CC)NC(=O)[C@@H](N)[C@@H](C)CC)CSC[C@@H](C(=O)N[C@H]2C(=O)N3CCC[C@H]3C(=O)NCC(=O)N[C@H](C(=O)N[C@@H](CCCCN)C(=O)NCCC[N+](C)(C)CCCCCCCCCC)CS[C@H]2C)NC(=O)[C@H](CC(C)C)NC1=O [(14)] | 4 | >64 | 4 | 4 | 8
10 | C=C1NC(=O)[C@H]([C@@H](C)CC)NC(=O)[C@H](NC(=O)C(=CC)NC(=O)[C@@H](N)[C@@H](C)CC)CSC[C@@H](C(=O)N[C@H]2C(=O)N3CCC[C@H]3C(=O)NCC(=O)N[C@H](C(=O)N[C@@H](CCCCN)C(=O)N[C@@H](Cc3c[nH]c4ccccc34)C(=O)NCCCCCCCCCC)CS[C@H]2C)NC(=O)[C@H](CC(C)C)NC1=O [(15)] | 4 (≈ 2.71 µM) | >64 | 8 (≈ 5.42 µM) | 2 (≈ 1.36 µM) | 8 (≈ 5.42 µM)
11 | C=C1NC(=O)[C@H]([C@@H](C)CC)NC(=O)[C@H](NC(=O)C(=CC)NC(=O)[C@@H](N)[C@@H](C)CC)CSC[C@@H](C(=O)N[C@H]2C(=O)N3CCC[C@H]3C(=O)NCC(=O)N[C@H](C(=O)N[C@@H](CCCCN)C(=O)N[C@@H](Cc3ccccc3)C(=O)NCCCCCCCCCC)CS[C@H]2C)NC(=O)[C@H](CC(C)C)NC1=O [(16)] | 4 (≈ 2.78 µM) | >64 | 8 (≈ 5.57 µM) | 2 (≈ 1.39 µM) | 8 (≈ 5.57 µM)
12 | C=C1NC(=O)[C@H]([C@@H](C)CC)NC(=O)[C@H](NC(=O)C(=CC)NC(=O)[C@@H](N)[C@@H](C)CC)CSC[C@@H](C(=O)N[C@H]2C(=O)N3CCC[C@H]3C(=O)NCC(=O)N[C@H](C(=O)N[C@@H](CCCCN)C(=O)N[C@@H](Cc3c[nH]cn3)C(=O)NCCCCCCCCCC)CS[C@H]2C)NC(=O)[C@H](CC(C)C)NC1=O [(17)] | – | – | – | 4 (≈ 2.8 µM) | 8 (≈ 5.61 µM)
13 | C=C1NC(=O)[C@H]([C@@H](C)CC)NC(=O)[C@H](NC(=O)C(=CC)NC(=O)[C@@H](N)[C@@H](C)CC)CSC[C@@H](C(=O)N[C@H]2C(=O)N3CCC[C@H]3C(=O)NCC(=O)N[C@H](C(=O)N[C@@H](CCCCNC(=O)CCCCCCCC)C(=O)NC)CS[C@H]2C)NC(=O)[C@H](CC(C)C)NC1=O [(19)] | – | – | – | 8 (≈ 6.14 µM) | 32 (≈ 24.5 µM)
14 | C=C1NC(=O)[C@H]([C@@H](C)CC)NC(=O)[C@H](NC(=O)C(=CC)NC(=O)[C@@H](N)[C@@H](C)CC)CSC[C@@H](C(=O)N[C@H]2C(=O)N3CCC[C@H]3C(=O)NCC(=O)N[C@H](C(=O)N[C@@H](CCCCNC(=O)CCN)C(=O)NCCCCCCCCCCCC)CS[C@H]2C)NC(=O)[C@H](CC(C)C)NC1=O [(21)] | – | – | – | 4 (≈ 2.88 µM) | 8 (≈ 5.76 µM)
15 | C=C1NC(=O)[C@H]([C@@H](C)CC)NC(=O)[C@H](NC(=O)C(=CC)NC(=O)[C@@H](NC(=O)CCN)[C@@H](C)CC)CSC[C@@H](C(=O)N[C@H]2C(=O)N3CCC[C@H]3C(=O)NCC(=O)N[C@H](C(=O)N[C@@H](CCCCNC(=O)CCN)C(=O)NCCCCCCCCCCCC)CS[C@H]2C)NC(=O)[C@H](CC(C)C)NC1=O [(22)] | – | – | – | 8 (≈ 5.48 µM) | 16 (≈ 11 µM)
16 | C=C1NC(=O)[C@H]([C@@H](C)CC)NC(=O)[C@H](NC(=O)C(=CC)NC(=O)[C@@H](N)[C@@H](C)CC)CSC[C@@H](C(=O)N[C@H]2C(=O)N3CCC[C@H]3C(=O)NCC(=O)N[C@H](C(=O)N[C@@H](CCCCN)C(=O)NC)CS[C@H]2C)NC(=O)[C@H](CC(C)C)NC1=O [D, reference compound] | >128 | >128 | >128 | – | –
17 | C=C1NC(=O)[C@H]([C@@H](C)CC)NC(=O)[C@H](NC(=O)C(=CC)NC(=O)[C@@H](N)[C@@H](C)CC)CSC[C@@H](C(=O)N[C@H]2C(=O)N3CCC[C@H]3C(=O)NCC(=O)N[C@H](C(=O)N[C@@H](CCCCN)C(=O)NCCCN=[N+]=[N-])CS[C@H]2C)NC(=O)[C@H](CC(C)C)NC1=O [E, Nisin [1-12]-azide, reference compound] | >128 | >128 | >128 | – | –
